Laboratory results from publication PMC9249104 (Nature chemical biology, 2021).
“Also recorded” adds a separate entry of the source. Where two headings read alike, the source gives them in different places.

What was measured:
[1] = system: MCF-7 cells; assay: Cell viability; format: cell-based; details: MCF-7, 72 hours
[2] = Two-day glucose tolerance test; format: in vivo; details: mice, one hour after inhibitor administration
[3] = system: 4EBP1 T37/T46 phosphorylation (mTORC1); assay: AlphaLISA/MSD p4EBP1 T37/T46 in MDA-MB-468 cells; format: cell-based
[4] = system: mTORC1 signaling (p4EBP1 T37/T46); assay: p4EBP1 T37/T46 in parental and FKBP12 knockout NCI-H358 cells; format: cell-based
[5] = system: AKT S473 phosphorylation (mTORC2); assay: AlphaLISA/MSD pAKT S473 in MDA-MB-468 cells; format: cell-based
[6] = MCF-7 subcutaneous xenograft: body weight; details: MCF-7 xenograft mice; bi-steric inhibitors ip once weekly, MLN0128 po daily
[7] = system: 4EBP1/2 WT and 4EBP1/2 DKO MEFs; assay: Cell growth of E1A/Ras-transformed 4EBP1/2 WT and DKO MEFs; format: cell-based, mouse; details: 72 hours
[8] = system: p4EBP1 T37/T46; assay: FK506 competition, p4EBP1 T37/T46 in MDA-MB-468 cells; format: cell-based
[9] = target: PIK3CD (Homo sapiens, UniProt O00329); assay: KiNativ kinome screen in Ramos cells: PIK3CD; details: read-out: inhibition of PIK3CD
PIK3CD, sequence (O00329 whole entry): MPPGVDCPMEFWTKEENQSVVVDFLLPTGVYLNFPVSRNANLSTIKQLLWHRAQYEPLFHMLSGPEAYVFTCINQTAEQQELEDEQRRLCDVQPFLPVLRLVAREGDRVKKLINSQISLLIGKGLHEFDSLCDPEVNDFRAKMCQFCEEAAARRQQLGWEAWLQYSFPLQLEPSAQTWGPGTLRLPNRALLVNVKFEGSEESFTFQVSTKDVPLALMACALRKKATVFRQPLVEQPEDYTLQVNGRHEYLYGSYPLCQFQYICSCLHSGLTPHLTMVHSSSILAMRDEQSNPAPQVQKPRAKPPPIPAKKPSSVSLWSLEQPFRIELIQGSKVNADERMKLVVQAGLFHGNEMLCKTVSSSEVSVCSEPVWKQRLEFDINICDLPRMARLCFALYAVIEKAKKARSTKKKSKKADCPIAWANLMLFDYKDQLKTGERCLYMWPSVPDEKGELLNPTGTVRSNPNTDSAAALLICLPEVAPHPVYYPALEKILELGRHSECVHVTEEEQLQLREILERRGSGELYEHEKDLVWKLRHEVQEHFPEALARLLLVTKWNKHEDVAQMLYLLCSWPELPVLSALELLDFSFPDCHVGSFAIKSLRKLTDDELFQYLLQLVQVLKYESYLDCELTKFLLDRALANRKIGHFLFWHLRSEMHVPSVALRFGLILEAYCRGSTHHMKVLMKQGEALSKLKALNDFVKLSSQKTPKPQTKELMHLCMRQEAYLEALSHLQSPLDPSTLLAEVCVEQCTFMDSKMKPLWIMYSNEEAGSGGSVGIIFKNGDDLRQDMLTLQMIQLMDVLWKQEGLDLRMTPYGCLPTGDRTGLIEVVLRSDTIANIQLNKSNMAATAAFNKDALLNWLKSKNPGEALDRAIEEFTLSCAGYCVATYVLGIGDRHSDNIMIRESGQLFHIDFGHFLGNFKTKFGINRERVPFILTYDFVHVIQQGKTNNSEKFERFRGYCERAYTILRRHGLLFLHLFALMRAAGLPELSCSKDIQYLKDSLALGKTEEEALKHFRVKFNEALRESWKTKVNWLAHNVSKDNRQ
PIK3CD, sequence (P27986 whole entry partner): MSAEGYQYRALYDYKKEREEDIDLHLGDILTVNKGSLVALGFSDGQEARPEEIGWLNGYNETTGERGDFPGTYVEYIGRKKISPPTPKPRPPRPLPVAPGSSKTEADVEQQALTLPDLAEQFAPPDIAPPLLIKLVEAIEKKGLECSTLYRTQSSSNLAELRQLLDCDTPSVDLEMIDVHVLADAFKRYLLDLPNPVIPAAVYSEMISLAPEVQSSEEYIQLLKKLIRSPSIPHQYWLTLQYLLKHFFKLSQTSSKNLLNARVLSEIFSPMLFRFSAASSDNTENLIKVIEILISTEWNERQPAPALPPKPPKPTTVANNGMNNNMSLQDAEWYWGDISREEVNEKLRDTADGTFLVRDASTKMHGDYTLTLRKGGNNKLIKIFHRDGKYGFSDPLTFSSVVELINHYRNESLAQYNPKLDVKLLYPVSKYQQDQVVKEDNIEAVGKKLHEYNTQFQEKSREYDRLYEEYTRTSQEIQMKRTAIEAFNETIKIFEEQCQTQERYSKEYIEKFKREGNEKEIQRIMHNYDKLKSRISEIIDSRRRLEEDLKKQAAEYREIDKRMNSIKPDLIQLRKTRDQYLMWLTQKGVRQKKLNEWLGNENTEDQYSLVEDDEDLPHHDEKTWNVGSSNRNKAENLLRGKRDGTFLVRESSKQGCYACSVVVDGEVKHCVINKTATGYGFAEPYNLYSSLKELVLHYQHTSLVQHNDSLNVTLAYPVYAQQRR

[10] = system: S6K T389 phosphorylation (mTORC1); assay: AlphaLISA pS6K T389 in MDA-MB-468 cells; format: cell-based
[11] = system: mTOR FRB mutation (F2108L); assay: Immunoblot of parental MCF-7 and MCF-7 cells harboring mTOR F2108L; format: cell-based; details: MCF-7, four hours
[12] = system: kinases other than mTOR; assay: KiNativ kinome screen in Ramos cells: kinases other than mTOR; details: 1 µM
[13] = system: pAKT S473; assay: Immunoblot of MCF-7 cells overexpressing Myr-AKT or vector control; format: cell-based; details: 4 hours; for effect on pAKT S473 in Myr-AKT cells: MCF-7 Myr-AKT cells, BiS-31x up to 100 nM; for effect on pAKT S473 in parental cells: MCF-7 parental cells
[14] = system: mTORC1 over mTORC2; assay: mTORC1/2 selectivity: potencies for inhibition of 4EBP1 T37/T46; format: cell-based; details: MDA-MB-468; p4EBP1 T37/T46 vs pAKT S473 potencies
[15] = system: pS6K T389, pAKT S473, cyclin D1; assay: Immunoblot of MDA-MB-468 and MCF-7 sgGFP and sg4EBP1 cells; format: cell-based; details: 4 hours
[16] = system: global protein synthesis; assay: Puromycin incorporation in MCF-7 cells; format: cell-based; details: MCF-7, 4 hours
[17] = system: MDA-MB-468 sgGFP and sg4EBP1 cells; assay: Cell viability of MDA-MB-468 sgGFP and sg4EBP1 cells; format: cell-based; details: for concentration suppressing proliferation: five days
[18] = system: eIF4F complex formation; assay: In vitro cap-binding affinity assay, MDA-MB-468 sgGFP and sg4EBP1 cells; format: cell-based; details: 3 nM, 4 and 24 hours, MDA-MB-468 sgGFP cells
[19] = system: mTORC1; details: cited from earlier work
[20] = system: HER3 expression and phosphorylation; assay: Immunoblot of MCF-7 and BT474 cells: HER3; format: cell-based; details: 10 nM, by 24 hours
[21] = system: pAKT S473; assay: Immunoblot of MCF-7 and BT474 cells: pAKT S473; format: cell-based; details: 10 nM, by 4 hours
[22] = system: AKT S473 phosphorylation; assay: Immunoblot of PC3 cells, 4 or 24 hours; format: cell-based
[23] = mouse, in vivo
[24] = target: FKBP12 (Homo sapiens, UniProt P62942); assay: TR-FRET competitive binding assay for FKBP12
FKBP12, sequence (P62942 whole entry): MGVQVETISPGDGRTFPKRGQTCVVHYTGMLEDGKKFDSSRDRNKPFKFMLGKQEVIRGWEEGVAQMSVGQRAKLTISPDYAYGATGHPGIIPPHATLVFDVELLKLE

In the case of `CC(C)n1nc(-c2ccc3oc(N)nc3c2)c2c(N)ncnc21` [MLN0128], the “GI50 relative to BiS-NS and BiS-13x (less potent)” value [1] is reported as 10 fold, the “return of glucose levels to baseline after the first glucose challenge” value [2] is reported as “delayed” and the “effect on p4EBP1 T37/T46” value [3] is reported as “inhibited”. The “impact of FKBP12 knockout on inhibitory activity” value [4] was “Neither FKBP12 knockout nor addition of FK506 had an impact”, the “effect on pAKT S473” value [5] was “inhibited” and the “maximum loss in body weight” value [6] was “up to 15%”. The “sensitivity to cell growth inhibition in 4EBP1/2 DKO MEFs compared to WT MEFs” value [7] was “a similar pattern was observed”, the “impact of addition of FK506 on inhibitory activity” value [8] was “Neither FKBP12 knockout nor addition of FK506 had an impact” and the inhibition at 1 µM [9] was 69%.

In the case of `CC(C)n1nc(-c2cc3cc(O)ccc3[nH]2)c2c(N)ncnc21` [PP242], the “effect on p4EBP1 T37/T46” value [3] is reported as “inhibited” and the “effect on pAKT S473” value [5] is reported as “inhibited”.

For `CO[C@H]1C[C@@H]2CC[C@@H](C)[C@@](O)(O2)C(=O)C(=O)N2CCCC[C@H]2C(=O)O[C@H]([C@H](C)C[C@@H]2CC[C@@H](O)[C@H](OC)C2)C[C@@H](OC)[C@H](C)/C=C(\C)[C@@H](O)[C@@H](OC)/C(=N/OCc2cn(CCOCCOCCOCCOCCOCCOCCOCCOCCC(=O)NCCCCn3nc(-c4ccc5oc(N)nc5c4)c4c(N)ncnc43)nn2)[C@H](C)C[C@H](C)/C=C/C=C/C=C/1C` [RMC-4529], the “GI50 relative to BiS-NS and BiS-13x (less potent)” value [1] was 10 fold, the IC50 ([3]; read-out: 4EBP1 T37/T46 IC50) was 6.37 nM and the IC50 ([10]; read-out: S6K IC50) was 0.98 nM. For the same compound, the “reduction in potency in cells with mTOR FRB mutation (F2108L)” value [11] was 10 fold, the “maximum loss in body weight” value [6] was 5% and the “interactions with kinases other than mTOR” value [12] was “No interactions”. For the same compound, the “effect on pAKT S473 in Myr-AKT cells” value [13] was “did not inhibit”, the “effect on pAKT S473 in parental cells” value [13] was “increase” and the “selectivity for mTORC1 over mTORC2” value [14] was 31 fold.

In the case of `CO[C@@H]1C[C@@H]2CC[C@@H](C)[C@@](O)(O2)C(=O)C(=O)N2CCCC[C@@H]2C(=O)O[C@H]([C@H](C)C[C@H]2CC[C@H](OCCOCc3cn(CCOCCOCCOCCOCCOCCOCCOCCOCCC(=O)NCCCCn4nc(-c5ccc6oc(N)nc6c5)c5c(N)ncnc54)nn3)[C@H](OC)C2)CC(=O)[C@H](C)/C=C(\C)[C@H](O)[C@@H](OC)C(=O)[C@H](C)C[C@H](C)/C=C/C=C/C=C/1C` [RapaLink-1], the “effect on p4EBP1 T37/T46” value [3] is reported as “equipotent”, the “effect on pS6K T389 and pAKT S473” value ([15]; control (sgGFP) and sg4EBP1 cells) is reported as “suppressed pS6K T389 and pAKT S473 effectively and equivalently” and the “effect on cyclin D1 levels” value ([15]; sg4EBP1 cells) is reported as “unaffected”. For the same compound, the “effect on cyclin D1 levels” value ([15]; sgGFP cells) was “reduced”, the “effect on global protein synthesis” value [16] was “suppressed” and the “sensitivity of sg4EBP1 cells compared to sgGFP cells (less sensitive)” value ([17]; MDA-MB-468, five days) was “three”. The concentration suppressing proliferation ([17]; MDA-MB-468 sg4EBP1 cells) was 0.3 nM, the concentration suppressing proliferation ([17]; MDA-MB-468 sgGFP cells) was 0.1 nM and the “displacement of eIF4G by 4EBP1 in the cap-binding complexes” value [18] was “significant displacement”. The “selectivity for mTORC1” value [19] was “three- to four”, the “effect on pS6K T389” value [10] was “equipotent” and the “effect on HER3 expression and phosphorylation” value [20] was “increased”. The “effect on pAKT S473 in Myr-AKT cells” value [13] was “inhibited”, the “effect on pAKT S473 in parental cells” value [13] was “inhibited” and the “selectivity for mTORC1 over mTORC2” value [14] was “three- to four; also recorded: approximately four”. For the same compound, the “effect on pAKT S473” value [21] was “abolished”.

In the case of `CO[C@H]1C[C@@H]2CC[C@@H](C)[C@@](O)(O2)C(=O)C(=O)N2CCCC[C@H]2C(=O)O[C@H]([C@H](C)C[C@@H]2CC[C@@H](O)[C@H](OC)C2)CC(=O)[C@H](C)/C=C(\C)[C@@H](O)[C@@H](OC)C(=O)[C@H](C)C[C@H](C)/C=C/C=C/C=C/1C` [Rapamycin], the “effect on pS6K T389” value [10] is reported as “inhibited”, the “effect on pAKT S473” value [5] is reported as “increased” and the “effect on AKT S473 phosphorylation” value [22] is reported as “significant inhibition”.

With RMC-4627 the “effect on p4EBP1 T37/T46” value [3] was “equipotent”, the “maximum loss in body weight” value [23] was 10% and the “effect on pS6K T389” value [10] was “equipotent”. For the same compound, the “affinity for FKBP12 relative to rapamycin (lower)” value [24] was “approximately 3 fold” and the “selectivity for mTORC1 over mTORC2” value [14] was 13 fold.
